In one data set the test system is rumen flora. As to the kind of experiment: In vitro rumen fluid test, volatile fatty acid production. It is filed as cell-based, steer. The following applies: 1 ppm in rumen fluid, 16 hours, 38° C. The text has this:
As discussed hereinabove, efficiency of carbohydrate utilization in ruminants is increased by treatments which stimulate the animal's rumen flora to produce propionate compounds rather than acetate or butyrate compounds. The efficiency of feed use can be monitored by observing the production and concentration of propionate compounds in the rumen, using the following methods:
Rumen fluid is obtained from a steer with a surgically-installed fistula opening into the rumen. The steer is maintained on a high-grain ration. A sample of rumen fluid is strained through four layers of cheesecloth, and the filtrate is collected. The particulate matter retained by the cheesecloth is resuspended in enough physiological buffer to return it to the original volume of the rumen fluid, and this suspension is strained again. The buffer used has the following composition:
The two filtrates are combined and allowed to stand until particulate matter separates to the top. The clear layer is separated, diluted with the same buffer (1:1) and then adjusted to between pH 6.8 to 7.0.
The diluted rumen fluid (10 ml) is placed in a 25-ml flask with 40 mg of the above-described feed, an additional 1 mg of soybean protein, and the compound to be tested. Four replicate flasks are used per treatment. Two sets of four control flasks each are also employed. A zero-time control and an incubated 16-hour control are used. All test flasks are incubated for 16 hours at 38° C. […] The samples are allowed to settle, and the supernatants are analyzed by gas chromatography for propionate, acetate, and butyrate compounds.

Data set [1] relates to Staphylococcus aureus (H-Heatley) NRRL B-314. As to the kind of experiment: Turbidometric assay (Autoturb), relative gram-positive activity. To be noted: relative to A-28086 factor A standard = 1; nutrient broth pH 7, 4 hours, 37° C. Format: cell-based. As for the experimental part:
The C2 -C6 -acyl ester derivatives of A-28086 factor A also have antibacterial and antifungal activity. In one aspect, these derivatives have increased gram-positive activity. The relative gram-positive activities of certain of these derivatives were compared with the activity of factor A. The compounds were tested by turbidometric assay on a semiautomated system (Autoturb microbiological assay system, Elanco) described by N. R. Kuzel and F. W. Kavanaugh in J. Pharmaceut. Sci. 60 (5), 764 and 767 (1971). In testing the A-28086 antibiotics, the following test parameters were used: Staphylococcus aureus (H-Heatley) NRRL B-314 in a nutrient broth medium (pH 7), incubated for 4 hours at 37° C. Test samples and the standard were dissolved in methanol-water (10:90). The standard, A-28086 factor A, was presented to the Autoturb carrousel at concentrations of 2, 3, 4, and 5 mcg/ml. Test compounds were diluted to contain approximately 3 or 4 mcg of activity per ml, as presented to the carrousel. The relative activities of test compounds, as compared to that of the standard, are given below: […]

The nature of data set [2]: Electrometric titration in 80% aqueous dimethylformamide (pKa).
Data set [3] can be described thus: Solubility in water and organic solvents. Format: physicochemical. The following applies: nonpolar organic solvents such as hexane.
Data set [4] has as its system E. tenella, E. necatrix, E. maxima, E. brunetti, E. acervulina, and E. mivati. The data set can be described thus: Anticoccidial activity in chicks against mixed Eimeria species. Format: in vivo. To be noted: 0.01% in feed. The source says:
(§1) ^1 Four replicates, 5 broiler cockerels each.

The subject of a further data set is ruminal propionic acid. As to the kind of experiment: In vivo ruminal propionic acid concentration in fistulated steers. The following applies: 100 mg/day, mean of five analyses in 14 days. As for the experimental part: The test reported in Table XII was conducted with mature fistulated steers weighing about 1,000 lbs. each. Two steers were fed a normal diet, and four steers in each treatment group were fed an identical diet to which A-28086 factor A had been added. To each aliquot (100 ml) of rumen fluid taken, 10 percent metaphosphoric acid (100 ml) was added. The samples were allowed to settle, and the supernatants were analyzed by gas chromatographic methods to determine propionic acid concentrations.
The results in Table XII are the mean percent increases in ruminal propionic acid concentration, averaged over five analyses in a 14-day treatment period. Controls had approximately 20 molar percent propionic acid.

Data set [5] has as its system E. necatrix and E. tenella. The data set can be described thus: Anticoccidial activity in chicks against mixed Eimeria species. Format: in vivo, E. necatrix and E. tenella; broiler cockerels. To be noted: 0.005% in feed.
From the text: as §1

In a further data set the test system is Eimeria tenella. The data set can be described thus: Anticoccidial activity in chicks against Eimeria tenella. Format: in vivo, Eimeria tenella; chickens. To be noted: for Percent Weight Gain: normal controls 100.
A short description of data set [6]: In vivo feed-utilization efficiency in sheep. The following applies: 56 days.
Data set [7] in a line: General microbiological (antibacterial/antifungal) activity. Format: cell-based. To be noted: in words.

Molecules are shown by their SMILES.

These results are taken from US4038384A, “Antibiotic A-28086 and process for production thereof” (Eli Lilly and Company, priority 1975, dated 1977).

As to `CCC(C(=O)O)C1OC(C(C)C(O)C(C)C(=O)C(CC)C2OC3(C=CC(OC(C)=O)C4(CCC(C)(C5CCC(O)(CC)C(C)O5)O4)O3)C(C)CC2C)C(C)CC1C` (stereo not shown) [A-28086 factor A acetyl ester derivative, A-28086 factor A acetyl ester], in the data set on rumen flora, the “Ratio of Treated to Control, Molar % acetate” value (from here on “Ratio … Molar % acetate”) was 0.79 and the “Ratio of Treated to Control, Molar % butyrate” value (“Ratio … Molar % butyrate” below) turned out to be 0.76. Besides, the “Relative G^+ Activity” value in data set [1] worked out at 2.5. The “pKa value of titratable group” value in data set [2] came to 8.5.

With `CCCC(=O)OC1C=CC2(OC(C(CC)C(=O)C(C)C(O)C(C)C3OC(C(CC)C(=O)O)C(C)CC3C)C(C)CC2C)OC12CCC(C)(C1CCC(O)(CC)C(C)O1)O2` (stereo not shown) [A-28086 factor A n-butyryl ester derivative], in the data set with rumen flora, the “Ratio … Molar % acetate” value stood at 0.91 and the “Ratio … Molar % butyrate” value was found to be 0.81. The “Relative G^+ Activity” value in data set [1] is given as 8.

As for `CCCCCC(=O)OC1C=CC2(OC(C(CC)C(=O)C(C)C(O)C(C)C3OC(C(CC)C(=O)O)C(C)CC3C)C(C)CC2C)OC12CCC(C)(C1CCC(O)(CC)C(C)O1)O2` (stereo not shown) [A-28086 factor A n-caproyl ester derivative], in the data set on rumen flora, the “Ratio … Molar % acetate” value is recorded as 0.86; the “Ratio … Molar % butyrate” value is 0.97; the “Ratio of Treated to Control, Total VFA mM/l” value worked out at 0.99. For the same molecule, in data set [1], the “Relative G^+ Activity” value is 20.

As to `CCCCC(=O)OC1C=CC2(OC(C(CC)C(=O)C(C)C(O)C(C)C3OC(C(CC)C(=O)O)C(C)CC3C)C(C)CC2C)OC12CCC(C)(C1CCC(O)(CC)C(C)O1)O2` (stereo not shown) [A-28086 factor A n-valeryl ester derivative], in the data set with rumen flora, the “Ratio … Molar % acetate” value is 0.92 and the “Ratio … Molar % butyrate” value worked out at 0.79. Moreover, the “Relative G^+ Activity” value in data set [1] was determined as 14.

In the case of `CCC(=O)OC1C=CC2(OC(C(CC)C(=O)C(C)C(O)C(C)C3OC(C(CC)C(=O)O)C(C)CC3C)C(C)CC2C)OC12CCC(C)(C1CCC(O)(CC)C(C)O1)O2` (stereo not shown) [A-28086 factor A propionyl ester derivative], in the data set on rumen flora, the “Ratio … Molar % acetate” value came out at 0.90 and the “Ratio … Molar % butyrate” value is listed as 0.68. Further, the “Relative G^+ Activity” value in [1] is given as 7.

Consider `CCC(C(=O)O)C1OC(C(C)C(O)C(C)C(=O)C(CC)C2OC3(C=CC(O)C4(CCC(C)(C5CCC(O)(CC)C(C)O5)O4)O3)C(C)CC2C)C(C)CC1C` (stereo not shown) [A-28086 factor A], for which the “solubility in nonpolar organic solvents” value in data set [3] is given as “only slightly soluble”. In addition, the “Cecal Lesions Percent Reducton” value in data set [4] is listed as 73%; in data set [5], 50%. Moreover, the “Percent Increase Over Control in ruminal propionic acid concentration” value in the data set with ruminal propionic acid turned out to be 54.0%. Besides, in the data set on rumen flora, the “Ratio … Molar % acetate” value was 0.94. The “Ratio … Molar % butyrate” value with rumen flora was determined as 0.87. Also, in data set [1], the “Relative G^+ Activity” value is recorded as 1. For the same molecule, the “pKa value of titratable group” value in [2] is on record as 7.9. Also, the “Percent Reduction in Lesion Score” value in the data set with Eimeria tenella (0.0025% in feed, second group) worked out at 0%; with Eimeria tenella (0.005% in feed, second group) it was 27%; with Eimeria tenella (0.01% in feed, first group), 95%; in the data set on Eimeria tenella (0.01% in feed, second group) it was 100%; in the data set with Eimeria tenella (0.02% in feed, first group), 95%; in the data set on Eimeria tenella (0.02% in feed, second group) it was 100%. Besides, the “Percent Reduction in Lesion Score” value with Eimeria tenella (0.04% in feed, first group) was determined as 100%. In addition, the “Percent Mortality” value with Eimeria tenella (0.0025% in feed, second group (20 chickens)) is listed as 10%; with Eimeria tenella (0.005% in feed, second group (20 chickens)), 0%; with Eimeria tenella (0.01% in feed, first group (10 chickens)), 0%; in the data set on Eimeria tenella (0.01% in feed, second group (20 chickens)), 0%; in the data set with Eimeria tenella (0.02% in feed, first group (10 chickens)), 0%; in the data set with Eimeria tenella (0.02% in feed, second group (20 chickens)), 0%. For the same molecule, the “Percent Mortality” value in the data set on Eimeria tenella (0.04% in feed, first group (10 chickens)) was found to be 0%. For the same molecule, the “Percent Weight Gain” value in the data set on Eimeria tenella (0.0025% in feed, second group) was 87%; in the data set with Eimeria tenella (0.005% in feed, second group) it was 91%; with Eimeria tenella (0.01% in feed, first group) it was 94%; in the data set on Eimeria tenella (0.01% in feed, second group), 96%; in the data set on Eimeria tenella (0.02% in feed, first group), 82%; in the data set on Eimeria tenella (0.02% in feed, second group) it was 84%. The “Percent Weight Gain” value with Eimeria tenella (0.04% in feed, first group) is reported as 50%. Moreover, the “Average Lesion Score” value was 2.8 with Eimeria tenella (0.005% in feed, second group); 0.2 with Eimeria tenella (0.01% in feed, first group); 0 in the data set with Eimeria tenella (0.01% in feed, second group); 0.2 in the data set with Eimeria tenella (0.02% in feed, first group); 0 with Eimeria tenella (0.02% in feed, second group); 0 with Eimeria tenella (0.04% in feed, first group). The Feed/Grain in data set [6] (9 g per ton of feed) is 7.40; in data set [6] (18 g per ton of feed), 8.31.

As for `CCC(C(=O)OC)C1OC(C(C)C(O)C(C)C(=O)C(CC)C2OC3(C=CC(O)C4(CCC(C)(C5CCC(O)(CC)C(C)O5)O4)O3)C(C)CC2C)C(C)CC1C` (stereo not shown) [A-28086-I], in [7], the microbiological activity result was “not microbiologically active”.
